The source of these data is US5753648A, “Tricyclic benzazepine vasopressin antagonists” (American Cyanamid Company, priority 1996, dated 1998).

The target in test [1] is T1, Rat Kidney Medullary V2 Receptors (Rattus norvegicus, UniProt Q00788).
T1 construct: Medullary tissues from rat kidneys are dissected out; from tissue; host or cells: rat kidney medulla membranes
The test is described as follows: biochemical. It counts as binding. As for the experimental part: Binding Assay to Rat Kidney Medullary V2 Receptors
Medullary tissues from rat kidneys are dissected out, cut into small pieces and soaked in a […] sodium chloride solution containing 1.0 mM EDTA with many changes of the liquid phase, until the solution is clear of blood. The tissue is homogenized in a 0.25M sucrose solution containing 1.0 mM EDTA and 0.1 mM PMSF using a Potter-Elvehjem homogenizer with a teflon pestle. The homogenate is filtered through several layers (4 layers) of cheese cloth. The filtrate is rehomogenized using a dounce homogenizer, with a tight fitting pestle. The final homogenate is centrifuged at 1500×g for 15 min. The nuclear pellet is discarded and the supernatant fluid recentrifuged at 40,000×g for 30 min. The resulting pellet formed contains a dark inner part with the exterior, slightly pink. The pink outer part is suspended in a small amount of 50.0 mM Tris.HCl buffer, pH 7.4. The protein content is determined by the Lowry's method (Lowry et al, J. Biol. Chem., 1953). The membrane suspension is stored at -70° C., in 50.0 mM Tris.HCl, containing 0.2% inactivated BSA and 0.1 mM PMSF in aliquots of 1.0 ml containing 10.0 mg protein per ml of suspension until use in subsequent binding experiments.
For binding experiments, the following is added in μl volume to wells of a 96 well format of a microtiter plate: 100.0 μl of 100.0 mM Tris.HCl buffer containing 0.2% heat inactivated BSA, 10.0 mM MgCl2 and a mixture of protease inhibitors: leupeptin, 1.0 mg %; aprotinin, 1.0 mg %; 1,10-phenanthroline, 2.0 mg %; trypsin inhibitor, 10.0 mg % and 0.1 mM PMSF, 20.0 μl of [^3 H] Arginine^8, vasopressin (S.A. 75.0 Ci/mmole) at 0.8 nM and the reaction initiated by the addition of 80.0 μl of tissue membranes (200.0 μg tissue protein). The plates are left undisturbed on the bench top for 120 min. to reach equilibrium. Non-specific binding is assessed in the presence of 1.0 μM of unlabeled ligand, added in 20 μl volume. For test compounds, these are solubilized in 50% dimethylsulfoxide (DMSO) and added in 20.0 μl volume to a final incubation volume of 200 μl. Upon completion of binding, the content of each well is filtered off, using a Brandel® cell Harvester (Gaithersburg, Md.). The radioactivity trapped on the filter disk by the ligand-receptor complex is assessed by liquid scintillation counting in a Packard LS Counter, with an efficiency of 65% for tritium. The data are analyzed for IC50 values by the LUNDON-2 program for competition (LUNDON SOFTWARE, Ohio).

A further test addresses T2, oxytocin receptors (Rattus norvegicus, UniProt P70536).
T2 sequence (P70536 1-388): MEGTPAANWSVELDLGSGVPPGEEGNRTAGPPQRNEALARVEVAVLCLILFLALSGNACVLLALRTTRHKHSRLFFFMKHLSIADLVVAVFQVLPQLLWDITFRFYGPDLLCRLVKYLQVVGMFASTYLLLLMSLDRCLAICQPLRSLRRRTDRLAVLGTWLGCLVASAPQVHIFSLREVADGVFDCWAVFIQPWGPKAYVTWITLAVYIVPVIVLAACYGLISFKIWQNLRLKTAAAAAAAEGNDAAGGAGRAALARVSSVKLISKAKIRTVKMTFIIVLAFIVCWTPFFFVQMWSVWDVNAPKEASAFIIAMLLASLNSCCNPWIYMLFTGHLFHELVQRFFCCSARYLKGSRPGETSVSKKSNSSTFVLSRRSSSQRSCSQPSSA
In words: Oxytocin Receptor Binding. To be noted: for pIC50: rat uterine membranes, [3H]oxytocin.

pIC50: −log10 of the molar value. Structures can show the parent of a compound that is named as a salt.

T1 sequence (Q00788 whole entry): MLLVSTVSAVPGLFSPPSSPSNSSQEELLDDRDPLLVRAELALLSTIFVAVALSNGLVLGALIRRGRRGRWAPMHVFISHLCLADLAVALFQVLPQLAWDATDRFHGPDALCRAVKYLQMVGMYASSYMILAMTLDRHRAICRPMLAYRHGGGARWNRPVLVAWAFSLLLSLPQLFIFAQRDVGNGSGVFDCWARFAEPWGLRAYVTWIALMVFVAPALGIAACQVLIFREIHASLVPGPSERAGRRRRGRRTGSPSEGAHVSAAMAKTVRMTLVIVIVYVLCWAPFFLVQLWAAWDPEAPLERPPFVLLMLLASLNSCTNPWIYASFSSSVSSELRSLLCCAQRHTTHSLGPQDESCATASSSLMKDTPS
Description for oxytocin receptors: Female Sprague-Dawley rats weighing approximately 200-250 g are injected intramuscularly (i.m.) with 0.3 mg/kg of body weight of diethylstilbestrol (DES). The rats are sacrificed 18 hours later under pentobarbital anesthesia. The uteri are dissected out, cleaned of fat and connective tissues and rinsed in 50 ml of normal saline. The tissue pooled from six rats is homogenized in 50 ml of 0.01 mM Tris.HCl, containing 0.5 mM dithiothreitol and 1.0 mM EDTA, adjusted to pH 7.4, using a polytron at setting 6 with three passes of 10 sec each. The homogenate is passed through two (2) layers of cheesecloth and the filtrate centrifuged at 1000×g for 10 min. The clear supernatant is removed and recentrifuged at 165,000×g for 30 min. The resulting pellet containing the oxytocin receptors is resuspended in 50.0 mM Tris.HCl containing 5.0 mM MgCl2 at pH 7.4, to give a protein concentration of 2.5 mg/ml of tissue suspension. This preparation is used in subsequent binding assays with [^3 H]Oxytocin.
Binding of 3,5-[^3 H]Oxytocin ([^3 H]OT) to its receptors is done in microtiter plates using [^3 H]OT, at various concentrations, in an assay buffer of 50.0 mM Tris.HCl, pH 7.4 and containing 5.0 mM MgCl2, and a mixture of protease inhibitors: BSA, 0.1 mg; aprotinin, 1.0 mg; 1,10-phenanthroline, 2.0 mg; trypsin, 10.0 mg; and PMSF, 0.3 mg per 100 ml of buffer solution. Non-specific binding is determined in the presence of 1.0 uM unlabeled OT. The binding reaction is terminated after 60 min., at 220° C., by rapid filtration through glass fiber filters using a Brandel® cell harvester (Bio-medical Research and Development Laboratories, Inc., Gaithersburg, Md.). Competition experiments are conducted at equilibrium using 1.0 nM [^3 H]OT and varying the concentration of the displacing agents. The concentrations of agent displacing 50% of [^3 H]OT at its sites (IC50) are calculated by a computer assisted LUNDON-2 program (LUNDON SOFTWARE INC., Ohio, USA).

On to `Cc1ccc(F)cc1C(=O)Nc1ccc(C(=O)N2Cc3cccn3-c3ncccc32)cn1` [Example 134, N-[5-(Pyrido[3,2-e]pyrrolo[1,2-a]pyrazin-5(6H)-ylcarbonyl)-2-pyridinyl]-5-fluoro-2-methylbenzamide], for which 10 µM produced 94% inhibition in test [1]. In addition, on oxytocin receptors (dose 1 μM), the inhibition (usually the change of the read-out against control, counted positive when it falls) at 1 µM stood at 63%.

Take `Cc1ccc(F)cc1C(=O)N(CCCN(C)C)c1ccc(C(=O)N2Cc3cccn3Cc3ccccc32)cn1` [Example 131, N-[3-(Dimethylamino)propyl]-N-[5-(5H-pyrrolo[2,1-c][1,4]benzodiazepin-10(11H)-ylcarbonyl)-2-pyridinyl]-5-fluoro-2-methylbenzamide]: in test [1], the inhibition at 1 µM is 82%. The molecule further yielded an inhibition at 10 µM at oxytocin receptors (dose 10 μM) of 60%.

As for `Cc1ccccc1Nc1ccc(C(=O)N2Cc3cccn3Cc3ccccc32)cn1` [Example 301, 10,11-Dihydro-10-[[6-[(2-methylphenyl)amino]-3-pyridinyl]carbonyl]-5H-Pyrrolo[2,1-c][1,4]benzodiazepine], the values for the inhibition at 10 µM (in test [1]; at oxytocin receptors (dose 10 μM)) were 91% and 89%, respectively. At oxytocin receptors, the pIC50 (commonly −log10 of the IC50, conventionally taken in molar units) is 6.07.

For the molecule `Cc1ccccc1CNc1ccc(C(=O)N2Cc3cccn3Cc3ccccc32)cn1` [Example 274], the inhibition at 10 µM in test [1] was determined as 97%.

As for `O=C(Nc1ccc(C(=O)N2Cc3cccn3Cc3ccccc32)cn1)c1c(F)cccc1Cl` [Example 18], testing at 1 µM in test [1] gave an inhibition of 94%. The molecule also showed an inhibition at 5 µM at oxytocin receptors (dose 5 μM) of 97%. The same molecule gave a pIC50 at oxytocin receptors of 6.51.

Molecule `CCCCOc1ccc(C(=O)N2Cc3cc(CO)nn3Cc3ccccc32)cc1` [Example 344, 5,10-Dihydro-2-hydroxymethyl-5-(4-(4-butyloxy)benzoyl)-4H-pyrazolo[5,1-c][1,4]benzodiazepine] displayed an inhibition at 1 µM on oxytocin receptors (dose 1 μM) of 58%. In addition, the negative logarithm of the IC50 (pIC50) at oxytocin receptors is 5.42.

On to `O=C(Nc1ccc(C(=O)N2Cc3cccn3Cc3ccccc32)cc1)c1cccnc1N1CCOCC1` [Example 339, N-[4-(5H-Pyrrolo[2,1-c][1,4]benzodiazepin-10(11H)-ylcarbonyl)phenyl]-2-(morpholino)-pyridine-3-carboxamide], for which at 1 µM the inhibition in test [1] was 55%. This molecule showed an inhibition at 10 µM at oxytocin receptors (dose 10 μM) of 48%. Also, at oxytocin receptors, the pIC50 was 5.07.

In turn, `Cc1ccc(F)cc1C(=O)Nc1ccc(C(=O)N2Cc3ccc(CN(C)C)n3Cc3ccccc32)cn1` [Example 120, N-[5-[[3-[(Dimethylamino)methyl]-[5H-pyrrolo[2,1-c][1,4]benzodiazepin-10(11H)]-yl]carbonyl]-2-pyridinyl]-5-fluoro-2-methylbenzamide] displayed an inhibition at 1 µM at oxytocin receptors (dose 1 μM) of 8%.

Consider `COc1ccc(CNc2ccc(C(=O)N3Cc4cccn4Cc4ccccc43)cn2)c(OC)c1` [Example 351], for which the inhibition at 1 µM came out at 56% in test [1] and 0% on oxytocin receptors (dose 1 μM).

As for `O=C(Nc1ccc(C(=O)N2Cc3cccn3Cc3ccccc32)cc1)c1cccnc1Oc1ccc(Cl)cc1` [Example 346, N-[4-(5H-Pyrrolo[2,1-c][1,4]benzodiazepin-10(11H)-ylcarbonyl)phenyl]-2-(4-chlorophenyloxy)pyridine-3-carboxamide], in test [1], the inhibition at 10 µM is 76%. Besides, the inhibition at 1 µM on oxytocin receptors (dose 1 μM) amounted to 0%.

As to `Cc1ccc(F)cc1C(=O)N(CCN(C)C)c1ccc(C(=O)N2Cc3cccn3Cc3ccccc32)cn1` [Example 130, N-[2-(Dimethylamino)ethyl]-N-[5-(5H-pyrrolo[2,1-c][1,4]benzodiazepin-10(11H)-ylcarbonyl)-2-pyridinyl]-5-fluoro-2-methylbenzamide], the inhibition at 10 µM is 92% in test [1] and 57% on oxytocin receptors (dose 10 μM).

As to `Cc1occc1C(=O)Nc1ccc(C(=O)N2Cc3cccn3Cc3ccccc32)cn1` [Example 353, N-[5-(5H-Pyrrolo[2,1-c][1,4]benzodiazepine-10(11H)-ylcarbonyl)-2-pyridinyl]-2-methylfurane-3-carboxamide], at 1 µM the inhibition in test [1] was 86%. This molecule came in with an inhibition at 10 µM on oxytocin receptors (dose 10 μM) of 83%. In addition, the pIC50 at oxytocin receptors is 5.69.

Molecule `O=C(Nc1ccc(C(=O)N2Cc3cccn3Cc3ccccc32)cn1)c1cc(Br)ccc1Cl` [Example 11] came in with an inhibition at 1 µM in test [1] of 93%.

As to `Cc1ccc(F)cc1C(=O)Nc1ccc(C(=O)N2Cc3cccn3-c3ccccc32)cn1` [Example 171, N-[5-(Pyrrolo[1,2-a]quinoxalin-5(4H)-ylcarbonyl)-2-pyridinyl]-5-fluoro-2-methylbenzamide], the inhibition at 10 µM at oxytocin receptors (dose 10 μM) stood at 73%. Further, the pIC50 on oxytocin receptors was 5.96.

In test [1], `O=C(Nc1ccc(C(=O)N2Cc3cccn3Cc3ccccc32)c(Cl)c1)c1ccccc1-c1ccc(C(F)(F)F)cc1` [Example 326] yielded an inhibition at 10 µM of 91%. Also, on oxytocin receptors (dose 1 μM), the inhibition at 1 µM came to 0%.

For the molecule `O=C(Nc1ccc(C(=O)N2Cc3cccn3Cc3ccccc32)cn1)c1ccccc1-c1ccccc1` [Example 10], 1 µM produced 95% inhibition in test [1].

`CN1CCN(c2ncccc2C(=O)Nc2ccc(C(=O)N3Cc4cccn4Cc4ccccc43)cc2)CC1` [Example 331, N-[4-(5H-Pyrrolo[2,1-c][1,4]benzodiazepin-10(11H)-ylcarbonyl)phenyl]-2-[N-methylpiperazinyl]-pyridine-3-carboxamide Hydrochloride]: the inhibition at 1 µM in test [1] amounted to 43%. Besides, the “Oxytocin Binding Assay % Inhibition” value at oxytocin receptors (dose 1 μM, Hydrochloride) is listed as 13%.

In test [1], `Cc1ncccc1C(=O)Nc1ccc(C(=O)N2Cc3cccn3Cc3ccccc32)cn1` [Example 330, N-[5-(5H-Pyrrolo[2,1-c][1,4]benzodiazepin-10(11H)-ylcarbonyl]-2-pyridinyl]-2-methylpyridine-3-carboxamide Hydrochloride] registered an inhibition at 1 µM of 79%. The “Oxytocin Binding Assay % Inhibition” value at oxytocin receptors (dose 10 μM, Hydrochloride) is listed as 93%. For the same molecule, the pIC50 on oxytocin receptors (Hydrochloride) was 6.00.

Take `CNc1ncccc1C(=O)Nc1ccc(C(=O)N2Cc3cccn3Cc3ccccc32)cc1` [Example 334, N-[4-(5H-Pyrrolo[2,1-c][1,4]benzodiazepin-10(11H)-ylcarbonyl)phenyl]-2-(methylamino)pyridine-3-carboxamide]: the inhibition at 1 µM was determined as 79% in test [1] and 5% on oxytocin receptors (dose 1 μM).

In test [1], `O=C(Nc1ccc(C(=O)N2Cc3cccn3Cc3ccccc32)cn1)c1cc(Cl)ccc1Cl` [Example 14] registered an inhibition at 1 µM of 99%. For the same molecule, at 10 µM the inhibition on oxytocin receptors (dose 10 μM) was 96%. The molecule further gave a pIC50 at oxytocin receptors of 6.24.

At oxytocin receptors (dose 10 μM), `O=C(Nc1ccc(C(=O)N2Cc3cccn3Cc3ccccc32)cn1)c1ccccc1[N+](=O)[O-]` [Example 43] displayed an inhibition at 10 µM of 99%. On oxytocin receptors, this molecule had a pIC50 of 6.04.

For `O=C(Nc1ccc(C(=O)N2Cc3cccn3Cc3ccccc32)cc1)c1cccnc1N1CCCCC1` [Example 336, N-[4-(5H-Pyrrolo[2,1-c][1,4]benzodiazepin-10(11H)-ylcarbonyl)phenyl]-2-(1-piperidinyl)-pyridine-3-carboxamide], in test [1], the inhibition at 1 µM was 69%. Moreover, the inhibition at 10 µM at oxytocin receptors (dose 10 μM) is 94%. Also, the negative logarithm of the IC50 (pIC50) at oxytocin receptors was 5.79.

For `Nc1ccccc1C(=O)Nc1ccc(C(=O)N2Cc3cccn3Cc3ccccc32)cn1` [Example 354, N-[5-(5H-Pyrrolo[2,1-c][1,4]benzodiazepin-10(11H)-ylcarbonyl)-2-pyridinyl]-2-aminobenzamide], the values for the inhibition at 1 µM (in test [1]; on oxytocin receptors (dose 1 μM)) were 86% and 7%, respectively.

The molecule `CC(C)(C)CCNc1ccc(C(=O)N2Cc3cccn3Cc3ccccc32)cn1` [Example 262] had an inhibition at 1 µM in test [1] of 50%. The same molecule displayed an inhibition at 10 µM on oxytocin receptors (dose 10 μM) of 76%. On oxytocin receptors, this molecule gave a pIC50 of 5.80.

For `CC(C)CNc1ccc(C(=O)N2Cc3cccn3Cc3ccccc32)cn1` [Example 261, 10-[[6-[(2-Methylpropyl)amino]-3-pyridinyl]carbonyl]-10,11-dihydro-5H-pyrrolo[2,1-c][1,4]benzodiazepine], in test [1], testing at 1 µM gave an inhibition of 32% and the inhibition at 10 µM amounted to 55%. At oxytocin receptors, this molecule had a pIC50 of 6.82.
